From ChEMBL document CHEMBL1129145, “Phosphonate-containing analogs of cholesteryl ester as novel inhibitors of cholesteryl ester transfer protein” (Bioorg Med Chem Lett, 1996)

Tests used:
[1] = target: T1, Cholesteryl ester transfer protein (Homo sapiens, UniProt P11597); test: Tested for inhibition of [3H]cholesteryl linoleate(CE) transfer from donor HDL to acceptor LDL driven by recombinant human cholesteryl ester transfer protein; inactive
T1 sequence (P11597 whole entry): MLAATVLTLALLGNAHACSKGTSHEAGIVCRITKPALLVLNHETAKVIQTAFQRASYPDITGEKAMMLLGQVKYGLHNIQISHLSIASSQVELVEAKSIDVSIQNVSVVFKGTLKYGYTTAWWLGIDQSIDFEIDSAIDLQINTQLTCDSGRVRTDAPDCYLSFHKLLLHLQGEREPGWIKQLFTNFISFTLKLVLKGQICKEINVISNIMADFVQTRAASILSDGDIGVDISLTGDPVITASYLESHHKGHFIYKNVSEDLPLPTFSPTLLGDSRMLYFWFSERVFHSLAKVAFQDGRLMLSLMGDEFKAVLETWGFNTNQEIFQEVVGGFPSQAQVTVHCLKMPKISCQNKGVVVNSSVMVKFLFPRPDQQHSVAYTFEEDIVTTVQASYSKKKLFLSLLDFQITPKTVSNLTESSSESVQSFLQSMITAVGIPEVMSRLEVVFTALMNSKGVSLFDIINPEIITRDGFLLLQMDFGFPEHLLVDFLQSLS

[2] = target: T1, Cholesteryl ester transfer protein; test: Tested for inhibition of [3H]cholesteryl linoleate(CE) transfer from donor HDL to acceptor LDL driven by recombinant human cholesteryl ester transfer protein
[3] = target: T1, Cholesteryl ester transfer protein; test: Tested for inhibition of [3H]cholesteryl linoleate(CE) transfer from donor HDL to acceptor LDL driven by recombinant human Cholesteryl ester transfer protein; Inactive
[4] = target: T1, Cholesteryl ester transfer protein; test: Tested for inhibition of [3H]cholesteryl linoleate(CE) transfer from donor HDL to acceptor LDL driven by recombinant human Cholesteryl ester transfer protein
[5] = target: T2, Cholesteryl ester transfer protein (Homo sapiens) (UniProt P11597); test: Tested for inhibition of [3H]cholesteryl linoleate(CE) transfer from donor HDL to acceptor LDL driven by recombinant human Cholesteryl ester transfer protein at 30 micro M
T2 sequence (whole entry): T1 sequence (P11597 whole entry)

[6] = target: T2, Cholesteryl ester transfer protein (Homo sapiens); test: Tested for inhibition of [3H]cholesteryl linoleate(CE) transfer from donor HDL to acceptor LDL driven by recombinant human cholesteryl ester transfer protein at 30 micro M
[7] = target: T1, Cholesteryl ester transfer protein; test: Tested for inhibition of [3H]cholesteryl linoleate(CE) transfer from donor HDL to acceptor LDL driven by recombinant human cholesteryl ester transfer protein; Inactive

SMILES | IC50 [4] | IC50 [3] | further results
CCCCCCCCCCCCCCCCCC[PH](=O)O[C@H]1CC[C@@]2(C)C(CC[C@H]3[C@@H]4CC[C@H]([C@H](C)CCCC(C)C)[C@@]4(C)CC[C@@H]32)C1 (stereo not given in full) |  |  | IC50 [1]: Not Active
CCCCCCCCCCCCCCCCCCP(=O)(O)CCc1ccccc1 |  |  | IC50 [2]: 14 µM
CCCCCCCCCCCCCCCCCCP(=O)(O)OCc1cccnc1 |  | Not Active | 
CCCCCCCCCCCCCCCCCCP(=O)(O)Oc1cc2ccccc2c2ccccc12 |  | Not Active | 
CCCCCCCCCCCCCCP(=O)(O)OCc1cccc(Oc2ccccc2)c1 | 6 µM |  | 
CCCCCCCCCCCCCCCCCCP(=O)(O)Oc1ccc2c(c1)Cc1ccccc1-2 |  | Not Active | 
CCCCCCCCCCCCCCP(=O)(O)OCc1ccccc1 | 5 µM |  | 
CCCCCCCCCCCCCCCCCC[PH](=O)O |  |  | inhibition [5]: 28%
CCCCCCCCCCCCCCCCCCP(=O)(O)OCc1ccccc1 |  |  | IC50 [2]: 2 µM
CCCCCCCCCCCCCCCCCCP(=O)(O)OC1c2ccccc2-c2ccccc21 |  | Not Active | 
CCCCCCCCCCCCCCCCCC[PH](=O)OCc1ccccc1 (stereo not given) |  | Not Active | 
CCCCCCCCCCCCCCCCCCP(=O)(O)O[C@H]1CC[C@@]2(C)C(CC[C@H]3[C@@H]4CC[C@H]([C@H](C)CCCC(C)C)[C@@]4(C)CC[C@@H]32)C1 (stereo not given in full) |  |  | inhibition [5]: 30%
CCCCCCCCCCCCCCP(=O)(O)Oc1ccc2ccccc2c1 | 24 µM |  | 
CCCCCCCCCCCCCCCCCCP(=O)(O)OC |  |  | inhibition [6]: 46%
CCCCCCCCCCCCCCP(=O)(O)OCc1ccoc1 | 15 µM |  | 
CCCCCCCCCCCCCCCP(=O)(O)OCc1ccccc1 | 4 µM |  | 
CCCCCCCCCC[PH](=O)OCc1ccccc1 (stereo not given) |  | Not Active | 
CCCCCCCCCCCCCCCCCCP(=O)(OC)OCc1ccccc1 (stereo not given) |  |  | IC50 [7]: Not Active
CCCCCC[PH](=O)OCc1ccccc1 (stereo not given) |  | Not Active | 
CCCCCCCCCCCCCc1n[nH]c(=S)n1-c1ccccc1 | 1.5 µM |  | 
